≈ marks a conversion by molar mass, not a printed value.

Conditions in one data set: not given
What is called solubility is the concentration that dissolves in the medium under given conditions. Consider `ClCCCCCl`, for which the solubility amounted to 120 mM (≈ 15300 µg/mL).

`CCOc1ccc(C(=O)OCCN(CC)CC)cc1` gave a solubility of 1.93 mM (≈ 512 µg/mL).

In turn, `Cc1cccc(Br)c1` yielded a solubility of 0.3 mM (≈ 51.3 µg/mL).

Compound `OC[C@H]1O[C@H](OC[C@H]2O[C@H](O[C@]3(CO)O[C@H](CO)[C@@H](O)[C@@H]3O)[C@H](O)[C@@H](O)[C@@H]2O)[C@H](O)[C@@H](O)[C@H]1O` came in with a solubility of 402 mM (≈ 203000 µg/mL).

The compound `Nc1ccc(-c2ccc(Cl)cc2)cc1` returned a solubility of 0.023 mM (≈ 4.68 µg/mL).

With `CCc1cccc(CC)c1N`, the solubility worked out at 4.49 mM (≈ 670 µg/mL).

`O=C1C=CC(=C(c2ccc(O)cc2)c2ccc(O)cc2)C=C1`: the solubility was found to be 4.13 mM (≈ 1200 µg/mL).

Compound `CC(C)(C)NC[C@H](O)COc1ccccc1C1CCCC1` displayed a solubility of 24 mM (≈ 7000 µg/mL).

The data set is the same for the next values; noted with them: 20 °C.
For `Clc1ccc(-c2cc(Cl)ccc2Cl)c(Cl)c1`, the solubility was 0.000267 mM (≈ 0.0781 µg/mL).

Compound `COC(=O)c1cc(Cl)cc(N)c1Cl` had a solubility of 0.545 mM (≈ 120 µg/mL).

Compound `c1ccc(C(c2ccccc2)(c2ccccc2)N2CCOCC2)cc1` gave a solubility of 6.07e-05 mM (≈ 0.02 µg/mL).

As for `CC(=O)C=C(C)C`, the solubility was found to be 294 mM (≈ 28900 µg/mL).

`COC(=O)C(Cl)Cc1ccc(Cl)cc1` (centres undefined) showed a solubility of 0.172 mM (≈ 40 µg/mL).

`Clc1ccc(-c2c(Cl)cc(Cl)c(Cl)c2Cl)c(Cl)c1`: the solubility is 3.37e-05 mM (≈ 0.0122 µg/mL).

In turn, `Oc1cccc2cccnc12` yielded a solubility of 3.83 mM (≈ 556 µg/mL).

`Cc1ccc(Cl)cc1` had a solubility of 0.837 mM (≈ 106 µg/mL).

`Clc1ccc(-c2cccc(Cl)c2Cl)c(Cl)c1` had a solubility of 0.000208 mM (≈ 0.0608 µg/mL).

`COc1ccc(C(=O)c2cccc(C)c2)cc1C` had a solubility of 0.00832 mM (≈ 2 µg/mL).

For `CCSc1nc(NC(C)C)nc(NC(C)C)n1`, the solubility was 0.0626 mM (≈ 16 µg/mL).

With `CCC(C)N` (centres undefined), the solubility was found to be 1530 mM (≈ 112000 µg/mL).

In turn, `Nc1ccccc1C(=O)O` displayed a solubility of 25.5 mM (≈ 3500 µg/mL).

`O=C1NC(=O)C2C3C(C(O)(c4ccccc4)c4ccccn4)=CC(C3=C(c3ccccc3)c3ccccn3)C12` (centres undefined): the solubility is 0.117 mM (≈ 60 µg/mL).

Regarding `CCCOC(=O)c1ccccc1C(=O)OCCC`, the solubility worked out at 0.432 mM (≈ 108 µg/mL).

The compound `NC[C@H](O)c1ccccc1` displayed a solubility of 334 mM (≈ 45800 µg/mL).

In turn, `N[C@@H](CSSC[C@H](N)C(=O)O)C(=O)O` yielded a solubility of 0.791 mM (≈ 190 µg/mL).

In turn, `CCOP(=S)(OCC)OP(=S)(OCC)OCC` showed a solubility of 0.0931 mM (≈ 30 µg/mL).

The compound `CCCCOC(=O)CC` showed a solubility of 11.5 mM (≈ 1500 µg/mL).

`CCOP(=O)(OCC)SCC(=O)NC(C)(C)C#N` gave a solubility of 238 mM (≈ 70000 µg/mL).

The compound `CCNc1nc(NC(C)(C)C)nc(OC)n1` yielded a solubility of 0.577 mM (≈ 130 µg/mL).

`CCC(C)OC(C)=O` (centres undefined) had a solubility of 53.4 mM (≈ 6200 µg/mL).

As to `CNc1ccccc1C(=O)O`, the solubility is 1.32 mM (≈ 200 µg/mL).

For `CNC(=O)Nc1nc2ccccc2s1`, the solubility was determined as 0.0579 mM (≈ 12 µg/mL).

The same data set, now with this note: 22 °C.
The compound `CCOP(=S)(OCC)N1C(=O)c2ccccc2C1=O` registered a solubility of 0.444 mM (≈ 133 µg/mL).

For the compound `C1CCN2C[C@@H]3C[C@@H](CN4CCCC[C@@H]34)[C@H]2C1`, the solubility turned out to be 13 mM (≈ 3040 µg/mL).

Compound `CCCC(C)C(=O)Nc1ccc(C)c(Cl)c1` (centres undefined) displayed a solubility of 0.0355 mM (≈ 8.5 µg/mL).

Still in this data set, the particulars now being: 23 °C.
As for `O=C1C(Cl)=C(NC(=O)C(Cl)Cl)C(=O)c2ccccc21`, the solubility came out at 0.00942 mM (≈ 3 µg/mL).

In turn, `Nc1nc(N)[nH]c(=O)n1` gave a solubility of 0.59 mM (≈ 75 µg/mL).

The data set is the same for the next values; noted with them: 24 °C.
As to `O=P(OC(CCl)CCl)(OC(CCl)CCl)OC(CCl)CCl`, the solubility is 0.0162 mM (≈ 7 µg/mL).

The compound `Cc1c2ccccc2cc2c1ccc1ccccc12` displayed a solubility of 4.54e-05 mM (≈ 0.011 µg/mL).

The compound `CC(CN1c2ccccc2Sc2ccccc21)N(C)C` (centres undefined) yielded a solubility of 0.055 mM (≈ 15.6 µg/mL).

`COP(=S)(Oc1cc(Cl)c(Br)cc1Cl)c1ccccc1` (centres undefined) showed a solubility of 7.28e-05 mM (≈ 0.03 µg/mL).

On to `CC(C)COC(=O)c1ccccc1C(=O)OCC(C)C`, for which the solubility is 0.0223 mM (≈ 6.2 µg/mL).

With `CC=CCCCC`, the solubility came out at 0.153 mM (≈ 15 µg/mL).

The same data set, now with this note: 25 °C.
With `O=C1OCc2ccc([N+](=O)[O-])cc21`, the solubility came to 2.23 mM (≈ 400 µg/mL).

Turning to `FC(F)(F)C(F)(F)F`, the solubility stood at 0.0564 mM (≈ 7.78 µg/mL).

`C[C@]12CCc3c(ccc4cc(O)ccc34)[C@@H]1CCC2=O`: the solubility worked out at 0.00571 mM (≈ 1.52 µg/mL).

Turning to `Cc1ccc(C)nc1`, the solubility was determined as 1530 mM (≈ 164000 µg/mL).

In the case of `C=CCC(C)C`, the solubility is 0.57 mM (≈ 48 µg/mL).

Compound `c1ccc(CCc2ccccc2)cc1` came in with a solubility of 0.0236 mM (≈ 4.3 µg/mL).

On to `c1ccc2c(c1)OCCOCCOc1ccccc1OCCOCCO2`, for which the solubility came out at 0.0203 mM (≈ 7.3 µg/mL).

As to `CN(C)C(=O)Nc1ccccc1`, the solubility turned out to be 24.5 mM (≈ 4030 µg/mL).

As to `O=C(O)c1cccc([N+](=O)[O-])c1C(=O)O`, the solubility worked out at 95.2 mM (≈ 20100 µg/mL).

With `CC(=O)OCC(C)C`, the solubility was found to be 54.2 mM (≈ 6300 µg/mL).

Regarding `CC(C)C(O)C(C)C`, the solubility turned out to be 60.2 mM (≈ 7000 µg/mL).

In turn, `Clc1ccc(-c2ccc(Cl)c(Cl)c2)cc1Cl` gave a solubility of 1.95e-06 mM (≈ 0.000569 µg/mL).

`Cc1nc(N(C)C)nc(OC(=O)N(C)C)c1C` yielded a solubility of 11.3 mM (≈ 2700 µg/mL).

As to `O=C(O)CCI`, the solubility was 372 mM (≈ 74300 µg/mL).

Compound `CCCCC=O` displayed a solubility of 136 mM (≈ 11700 µg/mL).

For `CCSCCSP(=S)(OC)OC`, the solubility was 0.812 mM (≈ 200 µg/mL).

Regarding `c1ccsc1`, the solubility stood at 35.8 mM (≈ 3010 µg/mL).

For `CCCC[C@@H](O)CC`, the solubility is 34.4 mM (≈ 4000 µg/mL).

The compound `CCC(O)CC` came in with a solubility of 584 mM (≈ 51500 µg/mL).

In turn, `COc1ccc2c(c1)c(CC(=O)O)c(C)n2C(=O)c1ccc(Cl)cc1` displayed a solubility of 0.00262 mM (≈ 0.937 µg/mL).

Take `O=C(O)c1cccc(F)c1`: the solubility worked out at 10.7 mM (≈ 1500 µg/mL).

(Values after the OPERA property sets (Mansouri et al. 2018).)
